Ends that are not written are not given here. * marks the point of attachment. Dansyl = CN(C)c1cccc2c(S(=O)(=O)*)cccc12
Columns and labels:
human mast cell tryptase [1] = assay: VIP assay for tryptase activity (Dns-VIP hydrolysis, HPLC/fluorescence, Dixon plot); format: biochemical; conditions: 0.4 and 0.8 μM VIP; 12.5 pM tryptase; 37° C.; read-out: Ki for inhibition of the formation of Dns-VIP-(1-14)
Protocol: In a typical assay, mast cell tryptase (12.5 pM) was incubated at 37° C. with dansyl-VIP (0.2-2 μM) in 100 mM Tris-HCl (pH 8.0) containing 1 μg/ml porcine mucosal heparin and 0.02% Triton X-100 in a final volume of 2.0 ml. To some samples, secretory leukocyte protease inhibitor was added to a final concentration of between 0 and 107 nM. The tryptase was pre-incubated with the SLPI, if added, for 5 min. at 37° C. before initiating the reaction by the addition of Dns-VIP. Aliquots (250 μl) were removed at 0, 2.5, 5.0, 7.5, 10, and 20 minutes to micro-vials (Sunbrokers) and the reaction terminated by the addition of TFA to a final concentration of 3% (v/v). The acidified reaction mixture was subjected to chromatography on a C-18 reverse-phase column (Vydac, 5 micron, 0.46×25 cm). Peptide hydrolysis was monitored by HPLC using a Hewlett Packard HP1090 unit complete with binary solvent delivery and autoinjection capability. Fluorescent detection (postcolumn) was performed with an inline Gilson Model 121 filter fluorimeter (excitation at 310-410 nm, emission at 480-520 nm). Dns-VIP fragments were separated from any unconverted Dns-VIP using a linear gradient of 69:31 (v/v) to 50:50 (v/v) C:D over 5.5 minutes (C=100 mM sodium acetate, pH 6.5 plus 0.2% sodium azide, D=80% ACN in water), with return to 69:31 (v/v) C:D at 6.5 minutes. Chromatography was performed at 1.0 ml/min at 25° C. […]

tryptase = assay: GPK-AMC assay for tryptase activity (Dixon plot); format: biochemical, human; conditions: 20 and 40 μM GPK-AMC; 37° C.; read-out: Ki for inhibition of tryptase catalyzed cleavage of GPK-AMC
Protocol: Tryptase activity was measured according to the procedure of Schwartz, et al., J. Biol. Chem., 261, 7372-7379 (1986) , with minor modifications, using Gly-Pro-Lys-Aminomethylcoumarin (GPK-AMC) as a substrate. The reaction was performed in assay buffer (0.1M Tris, pH 8.0, 10 μg/ml heparin) at room temperature in a 96-well microtiter plate (Perkin-Elmer, Norwalk, Conn.). The amount of coumarin produced by tryptase was determined by measuring the fluorescence (ex=372 nm, em=432 nm) on a Perkin-Elmer LS-50B fluorimeter equipped with a plate reader. 50 μl of tryptase (final concentration of 333 pM) was mixed with either 50 μl of the sample to be tested or with assay buffer and incubated for 5 min. at room temperature. […] The fluorescence intensity was measured every 5 minutes. For samples that were being tested for modulators of tryptase activity, the % inhibition for each fraction was determined by:
Inhibitory activity against tryptase and bovine trypsin was measured using Gly-Pro-Lys-aminomethylcoumarin as a substrate. […] The amount of coumarin produced was determined by measuring the fluorescence (ex=370 nm, em=432 nm) on a Perkin-Elmer LS-50B fluorimeter. […] The reaction was started by the addition of the substrate GPK-AMC (20 or 40 μM final) and the increase in fluorescence was measured over a 2 minute period. […]

human mast cell tryptase [2] = assay: Kinetic parameters for enzymatic cleavage of Dns-VIP by tryptase; format: biochemical
Protocol: In a typical assay, mast cell tryptase (12.5 pM) was incubated at 37° C. with dansyl-VIP (0.2-2 μM) in 100 mM Tris-HCl (pH 8.0) containing 1 μg/ml porcine mucosal heparin and 0.02% Triton X-100 in a final volume of 2.0 ml. To some samples, secretory leukocyte protease inhibitor was added to a final concentration of between 0 and 107 nM. The tryptase was pre-incubated with the SLPI, if added, for 5 min. at 37° C. before initiating the reaction by the addition of Dns-VIP. Aliquots (250 μl) were removed at 0, 2.5, 5.0, 7.5, 10, and 20 minutes to micro-vials (Sunbrokers) and the reaction terminated by the addition of TFA to a final concentration of 3% (v/v). The acidified reaction mixture was subjected to chromatography on a C-18 reverse-phase column (Vydac, 5 micron, 0.46×25 cm). Peptide hydrolysis was monitored by HPLC using a Hewlett Packard HP1090 unit complete with binary solvent delivery and autoinjection capability. Fluorescent detection (postcolumn) was performed with an inline Gilson Model 121 filter fluorimeter (excitation at 310-410 nm, emission at 480-520 nm). Dns-VIP fragments were separated from any unconverted Dns-VIP using a linear gradient of 69:31 (v/v) to 50:50 (v/v) C:D over 5.5 minutes (C=100 mM sodium acetate, pH 6.5 plus 0.2% sodium azide, D=80% ACN in water), with return to 69:31 (v/v) C:D at 6.5 minutes. Chromatography was performed at 1.0 ml/min at 25° C. The N-terminal fluorescent products were identified by subjecting known VIP fragments (see above) to chromatography under identical conditions.
The kinetic parameters Km, kcat, and Vmax for the initial rate of formation of Dns-VIP-(1-14) and Dns-VIP-(1-20), as well as the initial rate of disappearance of full-length Dns-VIP were determined. The initial velocity for the formation of Dns-VIP-(1-20) also contains the rate for the formation of Dns-VIP-(1-21) since it appears as a shoulder on the Dns-VIP-(1-20) peak within the elution profile. […] The effect of salt concentration on the initial rates of cleavage of Dns-VIP was measured in 150 mM NaCl and 10 mM CaCl2. In all cases, the kcat/Km values decreased with increasing salt concentration. […] However, this effect was offset by an increase in all of the Km values. […] The results for 10 mM CaCl2 were similar in that Km and Vmax values increased and kcat/Km ratios decreased.
Initial reaction velocities were obtained from a linear least squares analysis of the linear part of a plot of the number of picomoles of each product produced vs. time and where less than 10% of the total Dns-VIP was consumed. To determine the Ki value, a Dixon plot of the form 1/V vs. [I] was made for data collected at two different concentrations of VIP, where V is the velocity (pmoles/min) and [I] is the concentration of SLPI used.

bovine trypsin = biological target: T1, bovine trypsin (Bos taurus, UniProt P00760); assay: GPK-AMC assay for trypsin activity (Dixon plot); format: biochemical; conditions: at a concentration of 1800 nM
T1 sequence (P00760 24-246): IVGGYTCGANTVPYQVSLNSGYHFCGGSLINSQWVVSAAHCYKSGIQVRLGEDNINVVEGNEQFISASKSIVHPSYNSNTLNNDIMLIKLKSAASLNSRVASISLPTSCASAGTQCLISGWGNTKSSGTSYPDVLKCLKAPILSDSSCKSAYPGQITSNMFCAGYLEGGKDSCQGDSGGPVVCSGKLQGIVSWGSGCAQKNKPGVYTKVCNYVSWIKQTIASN
Protocol: Inhibitory activity against tryptase and bovine trypsin was measured using Gly-Pro-Lys-aminomethylcoumarin as a substrate. The reaction was performed in assay buffer that consisted of 0.1M Tris (pH 8.0), 1 μg/ml heparin, 0.02% Triton X-100, with 20 mM CaCl2 included only in the trypsin assays. The amount of coumarin produced was determined by measuring the fluorescence (ex=370 nm, em=432 nm) on a Perkin-Elmer LS-50B fluorimeter. To measure tryptase activity, 12 μl of a 1 nM solution of tryptase (tetramer) was incubated with either the N- (34 to 650 nM final) or the C-terminal (7-150 nM final) domain of SLPI in 1.0 ml of assay buffer for 5 minutes at 37° C. The reaction was started by the addition of the substrate GPK-AMC (20 or 40 μM final) and the increase in fluorescence was measured over a 2 minute period. In order to measure trypsin activity, 3.3 μl of a 10 μg/ml solution was incubated with either the N- or C- terminal domains of SLPI, and assayed using both 10 and 20 μM GPK-AMC. To determine Ki values, Dixon plots of the form 1/V vs [I] were constructed.

Ki (tryptase) [nM] | Inhibition of trypsin (bovine trypsin) | Substance | Ki (human mast cell tryptase [1]) [nM] | decrease in the kcat/Km ratio (human mast cell tryptase [2]; 10 mM CaCl2 vs no addition) [fold] | decrease in the kcat/Km ratio (human mast cell tryptase [2]; 150 mM NaCl vs no addition) [fold] | increase in Km (human mast cell tryptase [2]; 150 mM NaCl vs no addition) [fold] | increase in Vmax (human mast cell tryptase [2]; 150 mM NaCl vs no addition) [fold] | Km (human mast cell tryptase [2]; Addition: 10 mM CaCl2) [µM] | Vmax (human mast cell tryptase [2]; Addition: 10 mM CaCl2) [pmol/min/mg] | kcat/Km (human mast cell tryptase [2]; Addition: 10 mM CaCl2) [M^-1 sec^1 × 10^7] | Km (human mast cell tryptase [2]; Addition: 150 mM NaCl) [µM] | Vmax (human mast cell tryptase [2]; Addition: 150 mM NaCl) [pmol/min/mg] | kcat/Km (human mast cell tryptase [2]; Addition: 150 mM NaCl) [M^-1 sec^1 × 10^7] | Km (human mast cell tryptase [2]; Addition: None) [µM] | Vmax (human mast cell tryptase [2]; Addition: None) [pmol/min/mg] | kcat/Km (human mast cell tryptase [2]; Addition: None) [M^-1 sec^1 × 10^7]
4.8 | – | C-terminal domain: C-terminal domain of SLPI, amino acids 50-107, from formic acid cleavage of recombinant SLPI (PVDTPNPTRRKPGKCPVTYGQCLMLNPPNFCEMDGQCKRDLKCCMGMCGKSCVSPVKA) | 1.6 | – | – | – | – | – | – | – | – | – | – | – | – | –
– | – | Dns-VIP-(1-14): Dansyl-VIP fragment of amino acids 1-14 formed by tryptase cleavage after Arg-14 (Dansyl-HSDAVFTDNYTRLR; UniProt P01282 125-138, looked up, fragment) | – | 9 | 16 | 59 | 4 | 4.1 | 4.5 | 0.25 | 7.7 | 4.9 | 0.14 | 0.1 | 1.3 | 2.3
– | – | Dns-VIP-(1-20): Dansyl-VIP fragment of amino acids 1-20 formed by tryptase cleavage after Lys-20; peak includes the 1-21 shoulder (Dansyl-HSDAVFTDNYTRLRKQMAVK; UniProt P01282 125-144, looked up, fragment) | – | 11 | 47 | 72 | – | 4.5 | 2.6 | 0.13 | 9.4 | 1.1 | 0.03 | 0.1 | 0.6 | 1.4
– | – | Dns-VIP: N-terminally dansylated vasoactive intestinal peptide (28 amino acids), tryptase substrate (Dansyl-HSDAVFTDNYTRLRKQMAVKKYLNSILN; ends and bridges not checked; also: synthesized on Rink resin (C-terminus not given here)) | – | ~5 | 9 | 14 | – | 4.7 | 8.2 | 0.4 | 7.4 | 6.6 | 0.2 | 0.5 | 4.3 | 1.8
290 | unable to inhibit | N-terminal domain: N-terminal domain of SLPI, amino acids 1-49, from formic acid cleavage of recombinant SLPI (SGKSFKAGVCPPKKSAQCLRYKKPECQSDWQCPGKKRCCPDTCGIKCLD) | 130 | – | – | – | – | – | – | – | – | – | – | – | – | –

From patent US5633227A, “Secretory leukocyte protease inhibitor as an inhibitor of tryptase” (Miles, Inc., priority 1994, dated 1997)
